Measured values taken from publication PMC12186844 (ACS Chemical Neuroscience, 2025).
Where two headings read alike, the source gives them in different places.

Assays:
SNAP-D2SR D80^2.50A = SNAP-D2SR D80^2.50A (Homo sapiens, UniProt P14416, D80A); assay: cell membrane [3H]spiperone assay
Experimental: (§1) Flp-In-CHO cells stably expressing the wild-type or mutant DRs were grown to 90% confluence in 175 cm^2 cell culture flasks. The cells were harvested in PBS containing 2 mM EDTA and centrifuged at 300g for 3 min. The resulting pellet was resuspended in ice-cold assay buffer (20 mM HEPES, 100 mM NaCl, 6 mM MgCl2, 1 mM EGTA, and 1 mM EDTA, pH 7.4), and the centrifugation step was repeated. The intact cell pellet was then resuspended in assay buffer and homogenized using a Polytron homogenizer. After centrifugation (1000g, 10 min), the pellet was discarded, and the supernatant was recentrifuged at 30,000g for 1 h at 4 °C using a Sorvall Evolution RC ultracentrifuge (Thermo Scientific). The resulting pellet was resuspended in assay buffer and stored in 250 μL aliquots at −80 °C. Membrane protein concentration was determined using a Pierce’s BCA protein assay kit (Thermo Fisher, Melbourne).
(§2) [^3H]­Spiperone binding experiments using cell membranes were conducted in a 200 μL reaction volume in assay buffer (20 mM HEPES, 100 mM NaCl, 6 mM MgCl2, 1 mM EGTA, and 1 mM EDTA, pH 7.4) containing 100 μM GppNHp and 0.1% ascorbic acid in 96-well plates. […] In all cases, nonspecific binding was determined in the presence of 10 μM haloperidol. […] Filter bound radioactivity was detected as a chemiluminescence after the addition of MicroScint-20 (Revvity) in a MicroBeta plate counter (Revvity). […]

SNAP-D2SR WT = SNAP-D2SR WT (Homo sapiens, UniProt P14416); assay: functional cAMP assay, BRET biosensor; format: cell-based
Experimental: (§3) Flp-In-CHO cells stably coexpressing the CAMYEL biosensor and DRs were plated into white 96-well CulturPlates (Revvity) and grown overnight. The cells were equilibrated in Hank’s balanced salt solution (HBSS) at 37 °C (or 25 °C when indicated) before starting the experiment. The cells were costimulated with the agonists and 10 μM forskolin for the indicated time frames when the BRET readings were captured. Coelenterazine (Nanolight Technology, AZ) was added at a final concentration of 5 μM at least 3 min prior to measurement. […] Net BRET was determined by subtraction of the vehicle control coadded with 10 μM forskolin.
(§4) Dose–response curves were fitted using the following three-parameter equation: response=bottom+top−bottom/1+10^(logEC50−log[A]) 5 where top and bottom represent the maximal and minimal asymptote of the dose response curve, [A] is the molar concentration of the agonist, and EC50 is the molar concentration of the agonist required to give a response half-way between bottom and top.

SNAP-D2SR F353^6.44A [1] = target: T1, SNAP-D2SR F353^6.44A (Homo sapiens, UniProt P14416, F382A); assay: functional cAMP assay, BRET biosensor; format: cell-based
T1 sequence (P14416 1-414 isoform P14416-2 F353A): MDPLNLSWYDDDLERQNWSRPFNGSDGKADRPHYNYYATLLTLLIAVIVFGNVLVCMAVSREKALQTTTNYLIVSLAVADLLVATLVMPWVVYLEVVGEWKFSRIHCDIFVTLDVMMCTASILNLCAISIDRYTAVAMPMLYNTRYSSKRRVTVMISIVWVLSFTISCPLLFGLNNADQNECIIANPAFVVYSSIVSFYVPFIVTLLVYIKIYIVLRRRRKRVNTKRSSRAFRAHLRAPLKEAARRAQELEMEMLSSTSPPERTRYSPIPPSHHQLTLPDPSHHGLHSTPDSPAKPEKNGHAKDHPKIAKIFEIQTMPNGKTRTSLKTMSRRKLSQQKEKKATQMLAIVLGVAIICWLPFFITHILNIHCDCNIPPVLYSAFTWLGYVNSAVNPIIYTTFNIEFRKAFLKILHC
Experimental: as §3, §4

SNAP-D2SR I73^2.43A = SNAP-D2SR I73^2.43A (Homo sapiens, UniProt P14416, I73A); assay: functional cAMP assay, BRET biosensor; format: cell-based; parameters: expressed in transfected cells
SNAP-D2SR I73^2.43A, sequence (P14416 1-414 isoform P14416-2 I73A): as the sequence (P14416 1-414 isoform P14416-2 F353A) above, with I73A, A353F counted along it
Experimental: as §3, §4

D2LR [2] = target: T2, D2LR (Homo sapiens, UniProt P14416); assay: whole cell [3H]raclopride binding assay
T2 sequence (P14416 whole entry): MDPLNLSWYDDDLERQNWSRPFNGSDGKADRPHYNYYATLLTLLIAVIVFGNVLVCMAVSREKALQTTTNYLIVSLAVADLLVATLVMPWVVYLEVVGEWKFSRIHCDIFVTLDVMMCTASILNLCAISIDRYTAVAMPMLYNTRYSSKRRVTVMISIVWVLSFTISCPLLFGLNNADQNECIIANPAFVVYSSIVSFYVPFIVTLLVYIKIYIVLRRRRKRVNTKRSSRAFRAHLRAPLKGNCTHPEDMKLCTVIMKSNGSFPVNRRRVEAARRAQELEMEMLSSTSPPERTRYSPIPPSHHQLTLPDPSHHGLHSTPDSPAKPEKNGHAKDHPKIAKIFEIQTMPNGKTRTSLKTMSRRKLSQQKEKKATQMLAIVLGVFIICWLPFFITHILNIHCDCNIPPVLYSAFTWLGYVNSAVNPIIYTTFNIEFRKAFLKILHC
Experimental: The binding reaction was conducted in HBSS for 1 h at 37 °C. The adherent cells were washed two times with cold 0.9% NaCl solution, and 100 μL/well scintilation liquid was added to the plate. The remaining radioactivity was detected in a MicroBeta counter.

SNAP-D2SR F353^6.44A [3] = target: T1, SNAP-D2SR F353^6.44A; assay: cell membrane [3H]spiperone assay
Experimental: as §1, §2

D2R = target: T3, D2R (Homo sapiens, UniProt P14416); assay: D2R internalization whole cell ELISA; format: cell-based
T3 construct: expressed in transfected cells; host or cells: CHO cells stably overexpressing GRK2, transient
T3 sequence (P14416 whole entry): as above

SNAP-D2SR C118^3.36A = target: T4, SNAP-D2SR C118^3.36A (Homo sapiens, UniProt P14416, C118A); assay: functional cAMP assay, BRET biosensor; format: cell-based
T4 sequence (P14416 1-414 isoform P14416-2 C118A): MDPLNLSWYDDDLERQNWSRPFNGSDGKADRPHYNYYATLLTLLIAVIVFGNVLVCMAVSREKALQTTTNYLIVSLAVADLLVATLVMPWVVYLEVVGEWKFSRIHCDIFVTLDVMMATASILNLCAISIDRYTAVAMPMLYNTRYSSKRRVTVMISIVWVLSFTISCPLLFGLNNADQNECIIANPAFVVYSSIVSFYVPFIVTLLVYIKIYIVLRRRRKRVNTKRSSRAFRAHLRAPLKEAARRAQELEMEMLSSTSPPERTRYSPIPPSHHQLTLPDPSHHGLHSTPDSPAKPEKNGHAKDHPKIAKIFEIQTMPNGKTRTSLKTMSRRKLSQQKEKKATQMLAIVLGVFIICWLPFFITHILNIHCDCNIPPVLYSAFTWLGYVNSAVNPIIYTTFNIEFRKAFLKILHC
Experimental: as §3, §4

SNAP-D2SR T398^7.54A = SNAP-D2SR T398^7.54A (Homo sapiens, UniProt P14416, T427A); assay: functional cAMP assay, BRET biosensor; format: cell-based; parameters: expressed in transfected cells
SNAP-D2SR T398^7.54A, sequence (P14416 1-414 isoform P14416-2 T398A): as the sequence (P14416 1-414 isoform P14416-2 F353A) above, with A353F, T398A counted along it
Experimental: as §3, §4

D2LR [4] = target: T2, D2LR; assay: β-arrestin-2 recruitment BRET assay; format: cell-based
Experimental: Flp-In-CHO cells were seeded at a density of 2,000,000 cells per 10 cm dish and were transfected the following day using polyethylenimine as a transfection reagent. To assess β-arrestin-2 recruitment to the D2LR, the cells were transfected with 1 μg of Rluc8-tagged D2LR, 4 μg of YFP-β-arrestin-2, and 2 μg of GRK2. Twenty-four hours after transfection, the cells were plated into 96-well CulturPlates (PerkinElmer) and grown overnight. […] The cells were incubated with coelenterazine (Promega) at a final concentration of 5 μM for 5 min followed by stimulation with the agonists for an additional 5 min before the BRET readings were captured.

[5] = read-out: D2 PAM2 KB (converted)
[6] = cooperativity with [3H]raclopride
[7] = cooperativity with aripiprazole
[8] = cooperativity with bromocriptine
[9] = orthosteric ligand [3H]raclopride
[10] = orthosteric ligand aripiprazole
[11] = orthosteric ligand bromocriptine
[12] = titration of D2 PAM2 vs [3H]raclopride
[13] = titration, cooperativity with [3H]raclopride

SNAP-D2SR WT, sequence (P14416 1-414 isoform P14416-2): as the sequence (P14416 1-414 isoform P14416-2 F353A) above, with A353F counted along it
SNAP-D2SR D80^2.50A, sequence (P14416 1-414 isoform P14416-2 D80A): as the sequence (P14416 1-414 isoform P14416-2 F353A) above, with D80A, A353F counted along it

COc1cc(CO)c(F)cc1C(=O)n1ccc2c(F)cccc21 [D2 PAM2, [5-fluoro-4-(hydroxymethyl)-2-methoxyphenyl]-(4-fluoro-1H-indol-1-yl)methanone]
fold shift + 10 μM PAM (SNAP-D2SR D80^2.50A; shift of DA IC50): 0.9 fold
ΔpIC50 + 10 μM PAM (SNAP-D2SR D80^2.50A; shift of DA pIC50): –0.04 ± 0.27
D2 PAM2 log τ (SNAP-D2SR WT): 0.06 ± 0.05
D2 PAM2 pKB (SNAP-D2SR WT): 5.02 ± 0.14
D2 PAM2 τ (SNAP-D2SR WT): 1
Logτ (SNAP-D2SR WT; S13): 0.14 ± 0.10
pKB (SNAP-D2SR WT; S13): 4.93 ± 0.22
τ (SNAP-D2SR WT; S13): 1.38
Kb (SNAP-D2SR WT; S13, read-out: KB): 11.7 µM
Logαβ (SNAP-D2SR WT; S13, with DA): 1.60 ± 0.25
αβ (SNAP-D2SR WT; S13, with DA): 39.8
Kb (SNAP-D2SR WT; Table 2, read-out: D2 PAM2 KB (converted)): 9.5 µM
D2 PAM2 log αβ (SNAP-D2SR WT; with DA): 1.25 ± 0.14
D2 PAM2 αβ (SNAP-D2SR WT; with DA): 18
D2 PAM2 log τ (SNAP-D2SR F353^6.44A [1]): –1.06 ± 0.21
D2 PAM2 pKB (SNAP-D2SR F353^6.44A [1]): 5.13 ± 0.16
D2 PAM2 τ (SNAP-D2SR F353^6.44A [1]): 0.09
Kb (SNAP-D2SR F353^6.44A [1]; [5]): 7.4 µM
D2 PAM2 log αβ (SNAP-D2SR F353^6.44A [1]; with DA): 1.06 ± 0.21
D2 PAM2 αβ (SNAP-D2SR F353^6.44A [1]; with DA): 11
D2 PAM2 log τ (SNAP-D2SR I73^2.43A): –1.11 ± 0.16
D2 PAM2 pKB (SNAP-D2SR I73^2.43A): 5.24 ± 0.16
D2 PAM2 τ (SNAP-D2SR I73^2.43A): 0.08
fold decrease in cooperativity with DA (SNAP-D2SR I73^2.43A; cAMP): 2.8 fold
Kb (SNAP-D2SR I73^2.43A; [5]): 6 µM
D2 PAM2 log αβ (SNAP-D2SR I73^2.43A; with DA): 0.79 ± 0.07
D2 PAM2 αβ (SNAP-D2SR I73^2.43A; with DA): 6.1
fold inhibition of [3H]raclopride affinity (D2LR [2]): 2.43 fold
Logα (D2LR [2]; cooperativity with S-(3)-PPP): 0.40 ± 0.11
α (D2LR [2]; cooperativity with S-(3)-PPP): 2.5
Logα (D2LR [2]; [6]): -0.39 ± 0.12
α (D2LR [2]; [6]): −0.39
α (D2LR [2]; cooperativity with [3H]raclopride, listed as D2 PAM): 0.41
Logα (D2LR [2]; cooperativity with apomorphine): 1.05 ± 0.11
α (D2LR [2]; cooperativity with apomorphine): 11
Logα (D2LR [2]; [7]): 0.43 ± 0.10
α (D2LR [2]; [7]): 2.7
Logα (D2LR [2]; [8]): 0.27 ± 0.07
α (D2LR [2]; [8]): 1.9
Logα (D2LR [2]; cooperativity with dopamine): 1.33 ± 0.10
α (D2LR [2]; cooperativity with dopamine): 22
α (D2LR [2]; cooperativity with dopamine, listed as D2 PAM): 21
Logα (D2LR [2]; cooperativity with lisuride): 0.55 ± 0.04
α (D2LR [2]; cooperativity with lisuride): 3.5
Logα (D2LR [2]; cooperativity with pergolide): 1.24 ± 0.14
α (D2LR [2]; cooperativity with pergolide): 17
Logα (D2LR [2]; cooperativity with pramipexole): 1.21 ± 0.11
α (D2LR [2]; cooperativity with pramipexole): 16
Logα (D2LR [2]; cooperativity with ropirinole): 1.14 ± 0.11
α (D2LR [2]; cooperativity with ropirinole): 14
Logα (D2LR [2]; cooperativity with rotigotine): 1.37 ± 0.09
α (D2LR [2]; cooperativity with rotigotine): 23
Kb (D2LR [2]; orthosteric ligand S-(3)-PPP): 5.12 µM
pKB (D2LR [2]; orthosteric ligand S-(3)-PPP): 5.29 ± 0.05
Kb (D2LR [2]; [9]): 5.5 µM
pKB (D2LR [2]; [9]): 5.26 ± 0.10
Kb (D2LR [2]; orthosteric ligand apomorphine): 6.31 µM
pKB (D2LR [2]; orthosteric ligand apomorphine): 5.20 ± 0.10
Kb (D2LR [2]; [10]): 7.24 µM
pKB (D2LR [2]; [10]): 5.14 ± 0.04
Kb (D2LR [2]; [11]): 8.12 µM
pKB (D2LR [2]; [11]): 5.09 ± 0.13
Kb (D2LR [2]; orthosteric ligand dopamine): 5.5 µM
pKB (D2LR [2]; orthosteric ligand dopamine): 5.26 ± 0.10
Kb (D2LR [2]; orthosteric ligand lisuride): 5.62 µM
pKB (D2LR [2]; orthosteric ligand lisuride): 5.25 ± 0.07
Kb (D2LR [2]; orthosteric ligand pergolide): 8.32 µM
pKB (D2LR [2]; orthosteric ligand pergolide): 5.08 ± 0.10
Kb (D2LR [2]; orthosteric ligand pramipexole): 6.92 µM
pKB (D2LR [2]; orthosteric ligand pramipexole): 5.16 ± 0.11
Kb (D2LR [2]; orthosteric ligand ropirinole): 8.71 µM
pKB (D2LR [2]; orthosteric ligand ropirinole): 5.06 ± 0.06
Kb (D2LR [2]; orthosteric ligand rotigotine): 4.68 µM
pKB (D2LR [2]; orthosteric ligand rotigotine): 5.33 ± 0.14
Kb (D2LR [2]; read-out: Kb, affinity for the unoccupied receptor, DA competition, allosteric ternary complex model): 5.5 µM
Kb (D2LR [2]; [12]): 5.5 µM
pKb (D2LR [2]; [12]): 5.26
Logα (D2LR [2]; [13]): -0.37
α (D2LR [2]; [13]): 0.43
fold shift + 10 μM PAM (SNAP-D2SR F353^6.44A [3]; shift of DA IC50): 1.3 fold
ΔpIC50 + 10 μM PAM (SNAP-D2SR F353^6.44A [3]; shift of DA pIC50): 0.10 ± 0.12
pKB (D2R): 5.30 ± 0.29
LogτB (D2R; intrinsic efficacy): -2.20 ± 0.23
Logαβ (D2R; with dopamine): 0.99 ± 0.21
D2 PAM2 log τ (SNAP-D2SR C118^3.36A): –0.24 ± 0.05
D2 PAM2 pKB (SNAP-D2SR C118^3.36A): 4.82 ± 0.15
D2 PAM2 τ (SNAP-D2SR C118^3.36A): 0.57
Kb (SNAP-D2SR C118^3.36A; [5]): 15 µM
D2 PAM2 log αβ (SNAP-D2SR C118^3.36A; with DA): 1.30 ± 0.13
D2 PAM2 αβ (SNAP-D2SR C118^3.36A; with DA): 20
D2 PAM2 log τ (SNAP-D2SR T398^7.54A): –1.40 ± 0.22
D2 PAM2 pKB (SNAP-D2SR T398^7.54A): 5.35 ± 0.17
D2 PAM2 τ (SNAP-D2SR T398^7.54A): 0.04
fold decrease in cooperativity with DA (SNAP-D2SR T398^7.54A; cAMP): 6 fold
Kb (SNAP-D2SR T398^7.54A; [5]): 4 µM
D2 PAM2 log αβ (SNAP-D2SR T398^7.54A; with DA): 0.46 ± 0.05
D2 PAM2 αβ (SNAP-D2SR T398^7.54A; with DA): 2.9
pKB (D2LR [4]): 5.18 ± 0.12
LogτB (D2LR [4]; intrinsic efficacy): -1.30 ± 0.16
Logαβ (D2LR [4]; with dopamine): 1.52 ± 0.12
